“And” between values parts separate entries of the source, which are not always exact repeats. Identical values can stand only once.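 Values below derive from 48-hour exposures of cells grown in 96-well plates, with endpoints linearly interpolated between the two concentrations bracketing the appropriate inhibition level. GI50 marks 50% less growth. TGI marks complete inhibition of growth.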
Key:
Assay in all cases: DTP human tumour cell line panel, 48 h
[1] = system: LOX IMVI melanoma
[2] = system: OVCAR-3 ovarian
[3] = system: MDA-MB-231 breast
[4] = system: TK-10 renal
[5] = system: CCRF-CEM leukemia
[6] = system: ACHN renal
[7] = system: MALME-3M melanoma
[8] = system: NCI/ADR-RES ovarian
[9] = system: HCC-2998 colon
[10] = system: T-47D breast

SMILES	TGI [1]	TGI [2]	TGI [3]	TGI [4]	TGI [5]	TGI [6]	TGI [7]	TGI [8]	TGI [9]	TGI [10]	GI50 [1]	GI50 [2]	GI50 [3]	GI50 [4]	GI50 [5]	GI50 [6]	GI50 [7]	GI50 [8]	GI50 [9]	GI50 [10]
O=C(O)c1ccc(C(=O)O)c(C(=O)Nc2ccc3c(c2)C(=O)c2ccccc2-3)c1	> 100 µM	> 100 µM	> 100 µM	> 100 µM	> 100 µM	> 100 µM	> 100 µM	> 100 µM	> 100 µM	> 100 µM										
O=C(Nc1ccc(/C=C/c2ccc(NC(=O)c3cc(S(=O)(=O)O)c4cccnc4c3O)cc2S(=O)(=O)O)c(S(=O)(=O)O)c1)c1cc(S(=O)(=O)O)c2cccnc2c1O	> 28 µM	> 72.2 µM	> 68.4 µM	> 71.4 µM	> 29.1 µM	> 15.8 µM	> 62.6 µM	> 100 µM	> 100 µM	> 100 µM	3.07 µM	> 56.9 µM	16.3 µM	48.4 µM	3.15 µM	3.37 µM	34.4 µM	> 56.2 µM	97.6 µM	> 49.6 µM
N#C[Se]CCCNS(=O)(=O)C1CC2C=CC1C2 (stereo not given)	0.376 µM	3.1 µM	3.55 µM	2.33 µM	38.2 µM	2.85 µM	1.87 µM	5.12 µM	4.73 µM	8.28 µM	0.186 µM	1.47 µM	1.23 µM	0.403 µM	0.484 µM	1.48 µM	0.416 µM	0.57 µM	1.95 µM	2.55 µM
O=C1c2cccc(NCCN=Cc3ccccc3O)c2C(=O)c2c(NCCN=Cc3ccccc3O)cccc21	2.44 µM	2.09 µM	2.28 µM	5.52 µM	4.24 µM	8.82 µM	2.86 µM	97.1 µM	1.72 µM	4.46 µM	0.534 µM	0.514 µM	0.489 µM	1.71 µM	1.02 µM	1.32 µM	1.01 µM	11.5 µM	0.535 µM	0.684 µM
O=C(Nc1n[nH]c2nnc(-c3cccnc3)cc12)C1CC1	> 25 µM	> 18.4 µM	> 25 µM	> 25 µM	> 25 µM	> 25 µM	> 25 µM	> 25 µM	> 25 µM	> 25 µM	6.99 µM	0.114 µM			7.05 µM	3.88 µM	> 25 µM	> 25 µM	8.95 µM	> 12.9 µM
Cn1cc(C2=C(c3cn(C)c4ccccc34)C(=O)NC2=O)c2ccccc21	> 25 µM	> 6.67 µM	> 25 µM	> 25 µM	> 25 µM	> 25 µM	> 25 µM	> 25 µM	> 25 µM	> 25 µM	1.8 µM	0.646 µM	> 23.5 µM	8.75 µM	0.952 µM	2.25 µM	4.42 µM	1.55 µM	> 25 µM	1.8 µM
O=c1ssc(Cl)c1Cl	> 10 µM	> 10 µM	> 10 µM	> 10 µM	5.25 µM	> 10 µM	9.77 µM	> 10 µM	> 10 µM	> 10 µM										
CN1C/C=C/CCOc2cccc(c2)-c2ccnc(n2)Nc2cccc(c2)C1	1.12 µM	1.23 µM	1.08 µM	0.506 µM		1.45 µM	0.179 µM	0.963 µM	0.623 µM	0.447 µM	0.0248 µM	0.0336 µM	0.0731 µM	0.048 µM	0.0386 µM	0.0307 µM	0.0469 µM	0.0561 µM	0.048 µM	0.0437 µM
COc1cc2c(cc1OC)C1Cc3cc(OC)c(OC)cc3C(C2)N1C	> 75 µM	> 100 µM	> 75 µM	> 100 µM	> 100 µM	> 100 µM	> 100 µM	> 75 µM	> 100 µM	> 75 µM				36.3 µM and > 100 µM	27.4 µM and > 100 µM					
COc1ccc(Nc2cc(C)nc(NCCCNc3ccnc4cc(Cl)ccc34)n2)cc1	2.85 µM	3.12 µM	3.31 µM	3.41 µM	6.49 µM	3.16 µM	3.94 µM	6.27 µM	3.45 µM	3.69 µM	1.4 µM	1.65 µM	1.55 µM	1.89 µM	1.31 µM	1.61 µM	2.07 µM	2.38 µM	1.65 µM	1.68 µM
CCOc1cccc(-c2nc(N)nc(Nc3ccccc3SSc3ccccc3Nc3nc(N)nc(-c4cccc(OCC)c4)n3)n2)c1	3.22 µM	> 100 µM	27 µM	86.8 µM	> 100 µM	5.8 µM	> 100 µM	> 100 µM	> 100 µM	> 100 µM	1.51 µM	5.37 µM	3.72 µM	6.26 µM	2.2 µM	2.14 µM	5.63 µM	3.32 µM	> 100 µM	2.42 µM
CC(=O)N1N=C2/C(=C/c3ccc(Cl)cc3)CC(C)CC2C1c1ccc(Cl)cc1 (stereo not given)	34.6 µM	53.9 µM	52.6 µM	> 100 µM	62.6 µM	> 100 µM	76.2 µM	> 100 µM	38.1 µM	61.8 µM	18.1 µM	20 µM	18.1 µM	37.2 µM	19.7 µM	33.2 µM	23.6 µM	21.7 µM	19.1 µM	12.4 µM
Cc1cc(C(C)(C)C)cc(CNC2CCCCC2)c1O	29.5 µM	34.2 µM	32.9 µM	29.7 µM	91 µM	31 µM	27.8 µM	31.2 µM	10.4 µM	32.8 µM										
CCN1Cc2nc3sc(C)c(C)c3c(=O)n2C=C1C	17.1 µM	9.74 µM	24.7 µM	83.4 µM	8.21 µM	> 100 µM	73.5 µM	79.6 µM	37.8 µM	> 100 µM	4.64 µM	2.75 µM	8.14 µM	15.1 µM	2.52 µM	11.5 µM	16.4 µM	5.12 µM	5.19 µM	4.17 µM
CC1OC(OC2C(OC3CCC4(C)C(CCC5(C)C4CC=C4C6CC(C)(C)CCC6(C(=O)O)CCC45C)C3(C)CO)OCC(O)C2O)C(O)C(O)C1O (stereo not given)	53.5 µM	81.9 µM	35.4 µM	40.8 µM	18.3 µM	37.5 µM	37.5 µM	43.4 µM	30.8 µM	46.8 µM										
CCCCCCCCCCCCOC1C(CNC(=O)C2OC3OC(C)(C)OC3C2NC(=O)Nc2ccc(CC(=O)NC(Cc3ccccc3)C(=O)O)cc2)OC2OC(C)(C)OC21 (stereo not given)	> 25 µM	> 25 µM	> 25 µM	> 25 µM		> 25 µM	> 25 µM	> 25 µM	> 25 µM	> 25 µM	> 25 µM	> 25 µM	> 25 µM	> 25 µM		> 25 µM	> 25 µM	> 25 µM	> 25 µM	16.3 µM
Cc1c(O)c2c(c(O)c1Br)C(=O)C=CC2=O	1.54 µM and 0.703 µM	1.9 µM and 0.788 µM	3.01 µM and 3.48 µM	2.55 µM and 1.15 µM		2.2 µM and 1.83 µM	0.776 µM and 1.81 µM	1.66 µM and 7.1 µM	3.31 µM and 3.82 µM	2.01 µM	0.215 µM	0.241 µM	1.58 µM	0.343 µM		0.489 µM	0.552 µM	2.4 µM		
COc1ccc(-n2ccnc2-c2cc(OC)c(OC)c(OC)c2)cc1	> 100 µM	5.03 µM	> 100 µM	85 µM	> 100 µM		> 100 µM	7.82 µM	24.6 µM	> 100 µM	7.99 µM	1.58 µM	6.13 µM	4.19 µM	2.99 µM		0.747 µM	1.85 µM	0.957 µM	8.48 µM
COc1cc(C(=O)N/N=C/c2ccc(N(C)C)cc2)cc(OC)c1OC	> 100 µM	0.605 µM	> 87.9 µM		> 100 µM	> 100 µM	> 100 µM	1.6 µM	19.1 µM	> 100 µM	0.736 µM	0.259 µM	1.89 µM		0.344 µM	1.28 µM	0.582 µM	0.337 µM	0.551 µM	> 100 µM
CN(Cc1cc(Cl)cc(Cl)c1O)Cc1c(O)ccc2ccccc12	32.8 µM	35.7 µM	32.2 µM	31.1 µM		31 µM	28.9 µM	42.5 µM		43 µM										
COc1cc(-c2cc(-c3cc(OC)c(OC)c(OC)c3)nc3nc(N)[nH]c(=O)c23)ccc1Oc1ccnc2cc(Cl)ccc12	19.8 µM	13.6 µM	24.7 µM		> 100 µM	82.7 µM	> 100 µM	> 100 µM	11.3 µM	58 µM	1.27 µM	0.736 µM	2.59 µM		2.66 µM	2.89 µM	3.5 µM	2.14 µM	3.14 µM	5.22 µM

— PubChem BioAssay (NCI)
